Like-named read-outs stand apart in the source and are kept apart here.
Target: T1, HIV-1 protease (Human immunodeficiency virus type 1 group M subtype B, UniProt P04585)
T1 construct: Purified HIV-1 protease was obtained as described above; made in house; host or cells: E. coli K12 L507/pHP10D (NRRL B-18560)
Assay: biochemical
Procedure: A culture of E. coli K12 L507/pHP10D was grown to mid-log phase at 32° C. in LB media containing 12.5 μg/mL tetracycline. The cultivation temperature was quickly elevated to 40° C. to induce gene expression, and the cells were allowed to grow for 2.5 hours at this temperature before the culture was quickly chilled on ice. The cells were centrifuged and the cell pellet was resuspended in 20 mL of 50 mmol MES buffer (pH 6.0) containing 1 mmol EDTA, 1 mmol DTT, 1 mmol PMSF and 10% glycerol ("Buffer A"). Cells were lysed by sonication using a Fischer Model 300 Dismembrator and a microtip probe. Following centrifugation at 27,000×g, the supernatant was diluted to a total volume of 60 mL with Buffer A and loaded onto a 2.0×19 cm QAE-Sepharose column (1 mL/min, 4° C.), that had been equilibrated in Buffer A. The column was washed isocratically for 180 min and then eluted with a gradient eluent of 0-1.0M aqueous sodium chloride in Buffer A over 120 min. Enzymatic activity was measured by HPLC using the synthetic peptide Ser-Gln-Asn-Tyr-Pro-Ile-Val as described in Margolin et al., Biochem. Biophys. Res. Common., 167, 554-560 (1990); the production of the p1 peptide (Ser-Gln-Asn-Tyr) was measured.
The active fractions were combined, adjusted to […] 1.2M in ammonium sulfate, and applied to a 2.0×18 cm hexyl agarose column that had been equilibrated in Buffer A containing 1.2M ammonium sulfate. The sample was loaded at a flow rate of 1 mL/min at 4° C., washed with the equilibration buffer for 240 min (1 mL/min) and then eluted using a reverse linear gradient of 1.2-0M ammonium sulfate in Buffer A for 120 min at the same flow rate. The column was then washed isocratically in Buffer A for 120 min.
The active fractions were combined, concentrated to 10 mL using an Amicon stirred cell with a YM-10 membrane and then applied to a MonoS cation exchange column (1.0×10 cm) that had been equilibrated in Buffer A. The sample was loaded at a flow rate of 1 mL/min at 25° C. After washing isocratically for 30 min, the protease was eluted using a linear gradient of 0-0.45M aqueous sodium chloride in Buffer A over 40 min. The column was washed isocratically in Buffer A containing 0.45M aqueous sodium chloride for 30 minutes.
The active fractions were combined and concentrated to 200 μL using an Amicon stirred cell and a YM-10 membrane and then the protease was applied to a Superose 6 size exclusion column equilibrated in Buffer A containing 0.1M aqueous sodium chloride.
E. Fluorescence HIV-1 Protease Inhibitor Assay
The following buffers and solutions are used in the Fluorescence HIV-1 Protease Inhibitor Assay:
To each well of a round bottom, 96-well plate is added 20 μL of the Enzyme Solution followed by 10 μL of the compound to be evaluated in a 20% aqueous dimethylsulfoxide solution. Purified HIV-1 protease was obtained as described above. The resulting solution is incubated for one hour at room temperature and then 20 μL of a solution containing the substrate, prepared above, in MES-ALB buffer (1.5 μL/mL) is added to each well. The solutions are then incubated for 16 hours at room temperature and then each well is diluted with 150 μL of MES-ALB buffer.
To each well of a second round bottom, 96-well Pandex plate is added 25 uL of the Avidin Coated Beads Solution. Then, to each well is added 25 μL of the diluted incubation solutions, prepared above. The solutions are mixed thoroughly and the plates are loaded into a Pandex® machine, washed, evacuated and read. Sample detection was performed by excitation at 485 nm, reading the resulting epifluorescence at 535 nm.

[1] = read-out: Fluorescence Assay IC50 (converted)

Row | Structure (SMILES) | IC50 [1] | further results
1 | Cc1c(O)cccc1C(=O)N[C@@H](Cc1ccccc1)[C@H](O)CN1CCC[C@H]1C(=O)NC(C)(C)C [Example 4, [2S-(2R*,2'S*,3'R*)]-1-[2'-Hydroxy-3'-phenylmethyl-4'-aza-5'-oxo-5'-(2"-methyl-3"-hydroxyphenyl)pentyl]pyrrolidine-2-N-t-butylcarboxamide] | – | IC50: 3.05 µM
2 | Cc1c(O)cccc1C(=O)N[C@@H](Cc1ccccc1)[C@H](O)CN1CCCC[C@H]1C(=O)NC(C)(C)C [Example 6, [2S-(2R*,2'S*,3'R*)]-1-[2'-Hydroxy-3'-phenylmethyl-4'-aza-5'-oxo-5'-(2"-methyl-3"-hydroxyphenyl)pentyl]piperidine-2-N-t-butylcarboxamide] | – | IC50: 1.07 µM
3 | CC(C)(C)NC(=O)[C@@H]1CN(Cc2cccnc2)CCN1C[C@@H](O)[C@H](CSc1ccccc1)NC(=O)c1cccc2ncccc12 [Example 34, [2S-(2R*,2'S*,3'S*)]-1-[2'-Hydroxy-3'-phenylthiomethyl-4'-aza-5'-oxo-5'-(quinolin-5"-yl)pentyl]-4-(pyrid-3'"-ylmethyl)piperazine-2-N-t-butylcarboxamide] | 0.00718 µM | –
4 | Cc1c(NS(C)(=O)=O)cccc1C(=O)N[C@@H](Cc1ccccc1)[C@H](O)CN1C[C@H]2CCCC[C@H]2C[C@H]1C(=O)NC(C)(C)C [Example 36, [3S-(3R*,4aR*,8aR*,2'S*,3'S*)]-2-[2'-Hydroxy-3'-phenylmethyl-4'-aza-5'-oxo-5'-[2"-methyl-3"-N-(methylsulfonyl)amino-phenyl)]pentyl]decahydroisoquinoline-3-N-t-butylcarboxamide] | – | IC50 (read-out: Fluorescence Assay IC50, […], room temperature, 16 hours with substrate): 0.101 µM

Now from value to compound, other results behind:

Row | IC50 [1] | Structure (SMILES) | further results
5 | 0.176 µM | CC(C)(C)NC(=O)[C@@H]1C[C@@H]2CCCC[C@@H]2CN1C[C@@H](O)[C@H](Cc1ccccc1)NC(=O)c1cccc(Cl)c1Cl [Example 14, [3S-(3R*,4aR*,8aR*,2'S*,3R*)]-2-[2'-Hydroxy-3'-phenylmethyl-4'-aza-5'-oxo-5'-(2",3"-dichlorophenyl)pentyl]decahydroisoquinoline-3-N-t-butylcarboxamide] | –
6 | 0.613 µM | Cc1c(C(=O)N[C@@H](Cc2ccccc2)[C@H](O)CN2C[C@H]3CCCC[C@H]3C[C@H]2C(=O)NC(C)(C)C)cc[nH]c1=O [Example 16, [3S-(3R*,4aR*,8aR*,2'S*,3'R*)]-2-[2'-Hydroxy-3-phenylmethyl-4'-aza-5'-oxo-5'-(2"-oxo-3"-methyl-pyrid-4"-yl)pentyl]decahydroisoquinoline-3-N-t-butylcarboxamide] | –
7 | 0.455 µM | CC(C)(C)NC(=O)[C@@H]1C[C@@H]2CCCC[C@@H]2CN1C[C@@H](O)[C@H](Cc1ccccc1)NC(=O)c1c(Cl)ccc(O)c1Cl [Example 17, [3S-(3R*,4aR*,8aR*,2'S*,3'R*)]-2-[2'-Hydroxy-3'-phenylmethyl-4'-aza-5'-oxo-5'-(2",6"-dichloro-3"-hydroxyphenyl)pentyl]decahydroisoquinoline-3-N-t-butylcarboxamide] | –
8 | 0.0537 µM | Cc1cnccc1C(=O)N[C@@H](CSc1ccccc1)[C@H](O)CN1CCN(Cc2cccnc2)C[C@H]1C(=O)NC(C)(C)C [Example 35, [2S-(2R*,2'S*,3'S*)]-1-[2'-Hydroxy-3'-phenylthiomethyl-4'-aza-5'-oxo-5'-[3"-methyl-pyrid-4"-yl)]pentyl]-4-(pyrid-3'"-ylmethyl)piperazine-2-N-t-butylcarboxamide] | –
9 | 0.0252 µM | Cc1ccc2ncccc2c1C(=O)N[C@@H](CSc1ccccc1)[C@H](O)CN1C[C@H]2CCCC[C@H]2C[C@H]1C(=O)NC(C)(C)C [Example 38] | –
